The values that follow come from PubChem BioAssay (NCI).

Common to all, as to assay: growth of human tumour cells (NCI), 48 h
For assay [1], the system named is UO-31 renal.
Assay [2] has as its system MDA-MB-231 breast.
Assay [3] concerns COLO 205 colon.
Assay [4] relates to EKVX NSCLC.
For assay [5], the system named is 786-0 renal.
Assay [6] relates to HCT-116 colon.
The test system of assay [7] is HL-60(TB) leukemia.
Assay [8] has as its system DU-145 prostate.
The test system of assay [9] is MALME-3M melanoma.
Assay [10] deals with UACC-257 melanoma.
Assay [11] relates to RPMI-8226 leukemia.
For assay [12], the system named is SK-OV-3 ovarian.
The subject of assay [13] is A549 NSCLC.
For assay [14], the system named is SF-539 CNS.
The test system of assay [15] is OVCAR-4 ovarian.
Assay [16] deals with HT29 colon.
Assay [17] deals with SNB-75 CNS.
Assay [18] has as its system HOP-62 NSCLC.
Assay [19] deals with U251 CNS.
In assay [20] the test system is HCC-2998 colon.

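Cultured in 96-well plates, cells were exposed to test compound for 48 hours across five concentrations. TGI is the concentration that stops growth completely.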

Regarding `C1=NCCN2CCN(CCN=Cc3ccccc3OCc3cccc(n3)COc3ccccc31)CC2`, the TGI was greater than 50 µM in [1]; 34 µM in assay [2]; greater than 50 µM in assay [3]; greater than 50 µM in assay [4]; 39.5 µM in assay [5]; 18.8 µM in assay [6]. Besides, the TGI in [7] is 22.6 µM; in [8], 35.7 µM; in [9], 32.4 µM; in assay [10] it was 34.4 µM; in [11], 19.1 µM; in assay [12] it was greater than 50 µM. In addition, the TGI in [13] is greater than 50 µM; in assay [14] it was 14.1 µM; in assay [15], 26.6 µM; in assay [16] it was 18.5 µM; in assay [17] it was 32.5 µM; in assay [18], greater than 50 µM. In assay [19], the TGI is 10.2 µM.

As to `O=C(NC(=S)Nc1ccc2c(c1)Sc1ccccc1O2)c1ccc([N+](=O)[O-])cc1`, the TGI in assay [1], in [2], in assay [3], in assay [4], in assay [5] and in assay [6] was greater than 100 µM each time. Further, the TGI in assay [7], in [8], in [9], in assay [10], in assay [11] and in assay [12] was greater than 100 µM in each case. Besides, the TGI in assay [13], in [14], in assay [15], in assay [16], in assay [17] and in [18] was greater than 100 µM each time. In [19], this compound returned a TGI greater than 100 µM.

With `Cc1ccc2c(=O)cc(Cc3cccs3)[nH]c2n1`, the TGI in assay [1], in [2], in [3], in assay [4], in assay [5] and in assay [6] was greater than 100 µM throughout. Besides, the TGI in [7], in [8], in [9], in assay [10], in assay [11] and in [12] was greater than 100 µM in each case. The TGI in assay [13], in assay [15], in assay [16], in assay [17], in assay [18] and in assay [19] was greater than 100 µM each time.

Consider `CCCCCC1CC=CC(=O)O1` (stereo unspecified), for which the TGI in assay [1] was determined as 24 µM; in assay [2], 24.1 µM; in assay [3] it was 16.7 µM; in [4], 20.6 µM; in assay [5], 15.2 µM; in assay [6], 5.83 µM. Moreover, the TGI was greater than 100 µM in assay [7]; greater than 100 µM in assay [8]; 20.2 µM in assay [9]; 32.9 µM in assay [10]; 12.4 µM in [11]; 36.9 µM in assay [12]. The TGI in assay [13] came out at 65.8 µM; in assay [14], 3.83 µM; in assay [15], 13.8 µM; in assay [16], 17.8 µM; in assay [18], 18.5 µM; in assay [19], 17.2 µM.

For `c1cnn(C23C4C5C6C4C2C6C53)c1` (stereo unspecified), the TGI in [2], in assay [3], in [4], in assay [5], in [6] and in [7] was greater than 100 µM throughout. Besides, the TGI in assay [8], in assay [10], in assay [11], in [12], in [13] and in [14] was greater than 100 µM throughout. Further, the TGI in [20], in [16], in assay [17], in [18] and in assay [19] was greater than 100 µM throughout.

For `C[Si](C)(C)C#Cc1cc(-c2nc3ccccc3s2)ccc1N`, the TGI came to 26.4 µM in assay [1]; 38 µM in assay [2]; 29.5 µM in assay [3]; 25.7 µM in assay [4]; 30.7 µM in assay [5]; 26.6 µM in assay [6]. In addition, the TGI in assay [7] was determined as 50 µM; in assay [8], 62.1 µM; in assay [9], 23.7 µM; in [10] it was 34.8 µM; in [11], 48.3 µM; in [12], 41.9 µM. Besides, the TGI turned out to be 40.7 µM in assay [13]; 34.5 µM in assay [14]; 29.8 µM in [15]; 38.6 µM in [16]; 27.5 µM in assay [17]; 29.9 µM in assay [18]. In assay [19], this compound displayed a TGI of 37.9 µM.

For the compound `Oc1ccc2c(c1)CCc1c-2n(CCN2CCOCC2)c2ccc(O)cc12`, the TGI is 34.9 µM in [1]; greater than 100 µM in assay [2]; greater than 100 µM in [3]; greater than 100 µM in assay [4]; greater than 100 µM in assay [5]; greater than 100 µM in assay [6]. Also, the TGI in assay [7] is greater than 100 µM; in assay [8] it was greater than 100 µM; in assay [9], 75.6 µM; in assay [10], greater than 100 µM; in assay [11], greater than 100 µM; in assay [12] it was greater than 100 µM. For the same compound, the TGI in assay [14] is greater than 100 µM; in assay [17] it was 78.1 µM; in [18], greater than 100 µM; in [19] it was greater than 100 µM.
